Reference: the NIST ThermoML archive (doi:10.1021/je800609u)
± gives the expanded uncertainty stated by the source.

Assay: osmotic coefficient (dimensionless); mn = molality of the nth substance listed, in mol/kg
Conditions: Liquid, vapor pressure osmometery method

CCCCn1cc[n+](C)c1.[Cl-] [1-butyl-3-methylimidazolium chloride] + O
osmotic coefficient
Conditions | 298.15 K | 308.15 K | 318.15 K | 328.15 K
m1 = 0.0105 | 1 ± 0.012 | 0.948 ± 0.012 | 0.958 ± 0.012 | 0.978 ± 0.012
m1 = 0.023 | 0.958 ± 0.012 | 0.929 ± 0.012 | 0.932 ± 0.012 | 0.939 ± 0.012
m1 = 0.0289 | 0.932 ± 0.012 | 0.924 ± 0.012 | 0.935 ± 0.012 | 0.938 ± 0.012
m1 = 0.0398 | 0.892 ± 0.013 | 0.911 ± 0.012 | 0.916 ± 0.012 | 0.921 ± 0.012
m1 = 0.0621 | 0.855 ± 0.013 | 0.866 ± 0.013 | 0.881 ± 0.013 | 0.906 ± 0.012
m1 = 0.0803 | 0.833 ± 0.013 | 0.861 ± 0.013 | 0.869 ± 0.013 | 0.873 ± 0.013
m1 = 0.0986 | 0.827 ± 0.013 | 0.864 ± 0.013 | 0.865 ± 0.013 | 0.867 ± 0.013
m1 = 0.1413 | 0.814 ± 0.014 | 0.844 ± 0.013 | 0.857 ± 0.013 | 0.862 ± 0.013
m1 = 0.1816 | 0.789 ± 0.014 | 0.817 ± 0.014 | 0.823 ± 0.014 | 0.832 ± 0.013
m1 = 0.2223 | 0.779 ± 0.014 | 0.794 ± 0.014 | 0.807 ± 0.014 | 0.822 ± 0.014
m1 = 0.2764 | 0.772 ± 0.014 | 0.79 ± 0.014 | 0.797 ± 0.014 | 0.81 ± 0.014
m1 = 0.3386 | 0.768 ± 0.015 | 0.779 ± 0.014 | 0.798 ± 0.014 | 0.803 ± 0.014
m1 = 0.371 | 0.764 ± 0.015 | 0.775 ± 0.014 | 0.784 ± 0.014 | 0.79 ± 0.014
m1 = 0.4863 | 0.735 ± 0.015 | 0.747 ± 0.015 | 0.762 ± 0.015 | 0.775 ± 0.014
m1 = 0.599 | 0.718 ± 0.016 | 0.738 ± 0.015 | 0.75 ± 0.015 | 0.759 ± 0.015
m1 = 0.7152 | 0.716 ± 0.016 | 0.731 ± 0.015 | 0.748 ± 0.015 | 0.755 ± 0.015
m1 = 0.9754 | 0.699 ± 0.016 | 0.709 ± 0.016 | 0.723 ± 0.015 | 0.733 ± 0.015
m1 = 1.492 | 0.686 ± 0.016 | 0.692 ± 0.016 | 0.713 ± 0.016 | 0.719 ± 0.016
m1 = 2 | 0.686 ± 0.016 | 0.694 ± 0.016 | 0.706 ± 0.016 | 0.721 ± 0.016
m1 = 2.962 | 0.711 ± 0.016 | 0.721 ± 0.016 | 0.729 ± 0.015 | 0.744 ± 0.015
